# From US9499493B2, “2,4-pyrimidinediamine compounds and their uses” (Rigel Pharmaceuticals, Inc., priority 2002, dated 2016)
# Where a name gives a salt, the structure may show the parent alone.
# Experiments:
# [1] = system: cultured human mast cells (CHMC); experiment: CHMC low cell density IgE activation: tryptase assay; type: cell-based; settings: anti-IgE
# Method in brief: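 Low-density CHMC assay: donor-adjusted 1000-1500 cells/well, MT buffer, 1 hr 37° C preincubation; anti-IgE stimulus 30 min 37° C versus MT-only controls; supernatant tryptase by substrate, 30 min RT.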
# [2] = system: cultured human mast cells (CHMC); experiment: CHMC low cell density ionomycin activation: tryptase assay; type: cell-based
Compound,IC50 [1],IC50 [2],also measured
"CSc1nc2ccc(Nc3ncc(F)c(Nc4ccc5nc(SC)sc5c4)n3)cc2s1 [R950202, N2,N4-Bis[2-(methylthio)-1,3-benzothiaz-6-yl]-5-fluoro-2,4-pyrimidinediamine]",3.22 µM,> 10 µM,
"OCCNc1cccc(Nc2ncc(F)c(Nc3ccc4c(c3)OCCO4)n2)c1 [R950208, N4-(3,4-Ethylenedioxyphenyl)-5-fluoro-N2-[3-(hydroxyethyleneamino)phenyl]-2,4-pyrimidinediamine]",0.267 µM,> 10 µM,
"CCOC(=O)CNc1cccc(Nc2ncc(F)c(Nc3cccc(O)c3)n2)c1 [R950215, N2-(Ethoxycarbonylmethyleneaminophenyl)-5-fluoro-N4-(3-hydroxyphenyl)-2,4-pyrimidinediamine]",0.409 µM,> 10 µM,
CCOC(=O)CNc1cccc(Nc2ncc(F)c(Nc3cccc(O)c3)n2)c1 [R950216],,,"IC50 ([1]; Homo sapiens, Mast cell): 0.327 µM; IC50 ([2]; Homo sapiens, Mast cell): > 10 µM"
"O=C(CNc1cccc(Nc2ncc(F)c(Nc3cccc(O)c3)n2)c1)N1CCOCC1 [R950221, 5-Fluoro-N4-(3-hydroxyphenyl)-N2-[3-(N-morpholino)carbonylmethyleneaminophenyl]-2,4-pyrimidinediamine]",0.636 µM,> 10 µM,
"O=C(CNc1cccc(Nc2ncc(F)c(Nc3cccc(O)c3)n2)c1)N1CCNCC1 [R950222, 5-Fluoro-N4-(3-hydroxyphenyl)-N2-[3-(N-piperazino)carbonylmethyleneaminophenyl]-2,4-pyrimidinediamine]",0.865 µM,> 10 µM,
"CN1CCN(C(=O)CNc2cccc(Nc3ncc(F)c(Nc4cccc(O)c4)n3)c2)CC1 [R950223, 5-Fluoro-N4-(3-hydroxyphenyl)-N2-[3-[N—(N-methyl)piperazino]carbonylmethyleneaminophenyl]-2,4-pyrimidinediamine]",0.763 µM,> 10 µM,
O=C(CNc1cccc(Nc2ncc(F)c(Nc3cccc(O)c3)n2)c1)NCCN1CCOCC1 [R950226],1.37 µM,> 10 µM,
"CCOC(=O)CNc1cccc(Nc2ncc(F)c(Nc3cccc(NCCO)c3)n2)c1 [R950229, N2-(Ethoxycarbonylmethyleneaminophenyl)-5-fluoro-N4-[3-(2-hydroxyethylamino)phenyl]-2,4-pyrimidinediamine]",0.98 µM,> 10 µM,
"O=C(CNc1cccc(Nc2ncc(F)c(Nc3cccc(NCCO)c3)n2)c1)NCCO [R950231, 5-Fluoro-N4-[3-(2-hydroxyethylamino)phenyl]-N2-[3-[N-(2-hydroxyethylamino)]carbonylmethyleneaminophenyl]-2,4-pyrimidinediamine]",1.97 µM,> 10 µM,
"CNCCNC(=O)CNc1cccc(Nc2ncc(F)c(Nc3cccc(NCCO)c3)n2)c1 [R950234, 5-Fluoro-N4-[3-(2-hydroxyethylamino)phenyl]-N2-[3-[N-(2-methylamino)ethylamino]carbonylmethyleneaminophenyl]-2,4-pyrimidinediamine]",10 µM,> 10 µM,
"O=C(CNc1cccc(Nc2ncc(F)c(Nc3cccc(NCCO)c3)n2)c1)NCCNCc1ccccc1 [R950235, N2-[3-[N-(2-N-Benzylamino)ethylamino]carbonylmethyleneaminophenyl]-5-fluoro-N4-[3-(2-hydroxyethylamino)phenyl]-2,4-pyrimidinediamine]",4.09 µM,> 10 µM,
"O=C(CNc1cccc(Nc2ncc(F)c(Nc3cccc(NCCO)c3)n2)c1)N1CCOCC1 [R950236, 5-Fluoro-N4-[3-(2-hydroxyethylamino)phenyl]-N2-[3-(N-morpholino)carbonylmethyleneaminophenyl]-2,4-pyrimidinediamine]",0.955 µM,> 10 µM,
"CN(C)CCCNC(=O)CNc1cccc(Nc2ncc(F)c(Nc3cccc(NCCO)c3)n2)c1 [R950237, N2-[3-(3-N,N-Dimethylaminopropyl)aminocarbonylmethyleneaminophenyl]-5-fluoro-N4-[3-(2-hydroxyethylamino)phenyl]-2,4-pyrimidinediamine]",> 10 µM,> 10 µM,
"O=C(CNc1cccc(Nc2ncc(F)c(Nc3cccc(NCCO)c3)n2)c1)NCCN1CCOCC1 [R950239, 5-Fluoro-N4-[3-(2-hydroxyethylamino)phenyl]-N2-[3-(N-morpholinoethyleneamino)carbonylmethyleneaminophenyl]-2,4-pyrimidinediamine]",2.06 µM,> 10 µM,
"CN1CCN(C(=O)CNc2cccc(Nc3ncc(F)c(Nc4cccc(NCCO)c4)n3)c2)CC1 [R950240, N4-[3-(2-Hydroxyethyleamino)phenyl]-N2-[3-(N—(N-methyl)-piperazino)carbonylmethyleneaminophenyl]-5-fluoro-2,4-pyrimidinediamine]",1.77 µM,> 10 µM,
"O=C(CNc1cccc(Nc2ncc(F)c(Nc3cccc(NCCO)c3)n2)c1)N1CCNCC1 [R950241, N4-[3-(2-Hydroxyethyleamino)phenyl]-N2-[3-(N-piperazino)-carbonylmethyleneaminophenyl]-5-fluoro-2,4-pyrimidinediamine]",3.27 µM,> 10 µM,

Compound,IC50 [1],IC50 [2],also measured
O=[N+]([O-])c1cccc(Nc2nc(Nc3ccc4c(c3)NCCO4)ncc2F)c1 [R950253],0.697 µM,> 10 µM,
"CNC(=O)COc1cccc(Nc2ncc(F)c(Nc3cccc(N)c3)n2)c1 [R950262, N4-(3-Aminophenyl)-5-fluoro-N2-[3-(N-methylamino)carbonylmethyleneoxyphenyl]-2,4-pyrimidinediamine HCl salt]",,,IC50 ([1]; HCl salt): 0.285 µM; IC50 ([2]; HCl salt): > 10 µM
"CNC(=O)COc1cccc(Nc2ncc(F)c(Nc3cccc(N)c3)n2)c1 [R950263, N4-(3-Aminophenyl)-5-fluoro-N2-[3-(N-methylamino)carbonylmethyleneoxyphenyl]-2,4-pyrimidinediamine]",0.284 µM,3.3 µM,
"CNC(=O)COc1cccc(Nc2ncc(F)c(Nc3cccc(N(C)C)c3)n2)c1 [R950264, N4-(3-Bis-N-methylaminophenyl)-5-fluoro-N2-[3-(N-methylamino)carbonylmethyleneoxyphenyl]-2,4-pyrimidinediamine]",0.198 µM,> 10 µM,
"CNC(=O)COc1cccc(Nc2ncc(F)c(Nc3cccc(NC)c3)n2)c1 [R950267, N4-(3-N-Methylaminophenyl)-5-fluoro-N2-[3-(N-methylamino)carbonylmethyleneoxyphenyl]-2,4-pyrimidinediamine]",0.18 µM,> 10 µM,
"CCOC(=O)COc1cccc(Nc2ncc(F)c(Nc3ccc(O)c(C(=O)O)c3)n2)c1 [R950290, N4-(3-Carboxy-4-hydroxyphenyl)-5-fluoro-N2-[3-ethoxycarbonylmethyleneoxyphenyl]-2,4-pyrimidinediamine]",> 10 µM,> 10 µM,
"O=C(O)COc1cccc(Nc2ncc(F)c(Nc3ccc(O)c(C(=O)O)c3)n2)c1 [R950291, N4-(3-Carboxy-4-hydroxyphenyl)-5-fluoro-N2-[3-carboxymethyleneoxyphenyl]-2,4-pyrimidinediamine]",> 10 µM,> 10 µM,
"CCOC(=O)COc1cccc(Nc2ncc(F)c(Nc3ccc(O)c(C(=O)OC)c3)n2)c1 [R950293, N4-(3-Methoxycarbonyl-4-hydroxyphenyl)-5-fluoro-N2-[3-ethoxycarbonylmethyleneoxyphenyl]-2,4-pyrimidinediamine]",3.69 µM,8.15 µM,
"CCOC(=O)COc1cccc(Nc2ncc(F)c(Nc3ccc4c(c3)C(OC)CCO4)n2)c1 (centres unmarked) [R950294, N4-(4-Methoxy-3,4-dihydro-2H-1-benzopyran-6-yl)-5-fluoro-N2-[3-ethoxycarbonylmethyleneoxyphenyl]-2,4-pyrimidinediamine]",2 µM,8.01 µM,
"COC(=O)COc1cccc(Nc2ncc(F)c(Nc3ccc4c(c3)C(OC)CCO4)n2)c1 (centres unmarked) [R950295, N4-(4-Methoxy-3,4-dihydro-2H-1-benzopyran-6-yl)-5-fluoro-N2-[3-methoxycarbonylmethyleneoxyphenyl]-2,4-pyrimidinediamine]",2.04 µM,8.79 µM,
"CCOC1CCOc2ccc(Nc3nc(Nc4cccc(OCC(=O)NC)c4)ncc3F)cc21 (centres unmarked) [R950296, N4-(4-Ethoxy-3,4-dihydro-2H-1-benzopyran-6-yl)-5-fluoro-N2-[3-(N-methylamino)carbonylmethyleneoxyphenyl]-2,4-pyrimidinediamine]",0.495 µM,> 10 µM,
"CNC(=O)COc1cccc(Nc2ncc(F)c(Nc3ccc(OCCC(=O)OC)cc3)n2)c1 [R950346, N4-(4-Methoxycarbonylethyleneoxyphenyl)-5-fluoro-N2-[3-(N-methylamino)carbonylmethyleneoxyphenyl]-2,4-pyrimidinediamine]",0.345 µM,> 10 µM,
"CNC(=O)COc1cccc(Nc2ncc(F)c(Nc3ccc4c(c3)C(O)CCO4)n2)c1 (centres unmarked) [R950349, N4-(4-Hydroxy-3,4-dihydro-2H-1-benzopyran-6-yl)-5-fluoro-N2-[3-(N-methylamino)carbonylmethyleneoxyphenyl]-2,4-pyrimidinediamine]",0.078 µM,> 10 µM,
"CNC(=O)COc1cccc(Nc2ncc(F)c(Nc3cccc(C(=O)c4ccccc4)c3)n2)c1 [R950372, N4-(3-Phenylcarbonylphenyl)-5-fluoro-N2-[3-(N-methylamino)carbonylmethyleneoxyphenyl]-2,4-pyrimidinediamine]",1.35 µM,> 10 µM,
"CNC(=O)COc1cccc(Nc2ncc(F)c(Nc3cccc(C(=NO)c4ccccc4)c3)n2)c1 [R950374, N4-(3-Phenylcarbonyloximephenyl)-5-fluoro-N2-[3-(N-methylamino)carbonylmethyleneoxyphenyl]-2,4-pyrimidinediamine]",0.599 µM,> 10 µM,
"CC(=NO)c1cccc(Nc2ncc(F)c(Nc3cccc(C(C)=NO)c3)n2)c1 [R950379, N2,N4-Bis(3-methylcarbonyloximephenyl)-5-fluoro-2,4-pyrimidinediamine]",0.545 µM,> 10 µM,
"ON=C(c1ccccc1)c1cccc(Nc2ncc(F)c(Nc3cccc(C(=NO)c4ccccc4)c3)n2)c1 [R950380, N2,N4-Bis(3-phenylcarbonyloximephenyl)-5-fluoro-2,4-pyrimidinediamine]",3 µM,> 10 µM,
